{"source": "patent US4603142A", "about": "“Cholesterol lowering method of use” (Wisconsin Alumni Research Foundation, priority 1984, dated 1986)", "key": {"[1]": {"assay": "Serum lipids in 3-week-old broiler male chickens fed supplemented corn diet", "type": "in vivo, chicken", "conditions": "for Concentration in Serum Chol-LDL, percentage of control / Concentration in Serum Total Cholesterol, percentage of control / Concentration in Serum Chol-LDL / Concentration in Serum HDL-Chol. / Concentration in Serum Total Cholesterol: fed 3 weeks", "from_the_text": "(§1) These responses were attributed to the presence in the small grains of relatively high concentrations of beta-D-glucans and pentosans. A long-standing interest in lipid metabolism prompted us to examine certain lipogenic and cholesterolgenic enzymes in the tissues of these birds. Methods used for handling blood samples, preparing subcellular fractions of liver and assay procedures for beta-hydroxy-beta-methylglutaryl coenzyme A (HMG Co-A) reductase, fatty acid synthetase (FAS), plasma cholesterol and triglycerides and the statistical treatment of the data have been described [Qureshi AA et al. (1980): Regulation of lipid metabolism in chicken livers by dietary cereals, J Nutr 110:388-393].\nFor large scale preparation of these compounds, 10 grams of the petroleum ether soluble fraction of HPBF were dissolved in 10 ml petroleum ether and applied to a 90×3.5 cm silicic acid column (Bio-Silica, 100-200 mesh). The column was washed with 2,500 ml petroleum ether followed by stepwise elution with increasing amounts of ether in petroleum ether. Fraction 8 of the column corresponded to HPLC fraction 5. A concentration-dependent suppression of HMG Co-A reductase activity and enhancement of FAS activity was noted within this range. Serum total and LDL cholesterol levels also fell in a dose-dependent response. […] In a companion experiment, using the same control birds, the effect of cholesterol inhibitor I at 5 ppm is compared to the effect of the petroleum ether solubles of HPBF at 20% equivalent on weight gain, HMG Co-A reductase and FAS activities, serum cholesterol and serum triglyceride levels (Table 2). […] Serum triglyceride levels reflected the influence of the diet on FAS activity. […] Cholesterol inhibitor I was a more powerful suppressor of LDL cholesterol (Table 2).\n^1 Feeding period was 3 weeks; Time of killing was 0800; Data\nexpressed as mean ± SD; N = 9 chickens per group; HMGCoA reductase ="}, "HMG-CoA reductase [2]": {"biological_target": "T1, HMG-CoA reductase (Homo sapiens, UniProt P04035)", "T1 sequence (P04035 1-888)": "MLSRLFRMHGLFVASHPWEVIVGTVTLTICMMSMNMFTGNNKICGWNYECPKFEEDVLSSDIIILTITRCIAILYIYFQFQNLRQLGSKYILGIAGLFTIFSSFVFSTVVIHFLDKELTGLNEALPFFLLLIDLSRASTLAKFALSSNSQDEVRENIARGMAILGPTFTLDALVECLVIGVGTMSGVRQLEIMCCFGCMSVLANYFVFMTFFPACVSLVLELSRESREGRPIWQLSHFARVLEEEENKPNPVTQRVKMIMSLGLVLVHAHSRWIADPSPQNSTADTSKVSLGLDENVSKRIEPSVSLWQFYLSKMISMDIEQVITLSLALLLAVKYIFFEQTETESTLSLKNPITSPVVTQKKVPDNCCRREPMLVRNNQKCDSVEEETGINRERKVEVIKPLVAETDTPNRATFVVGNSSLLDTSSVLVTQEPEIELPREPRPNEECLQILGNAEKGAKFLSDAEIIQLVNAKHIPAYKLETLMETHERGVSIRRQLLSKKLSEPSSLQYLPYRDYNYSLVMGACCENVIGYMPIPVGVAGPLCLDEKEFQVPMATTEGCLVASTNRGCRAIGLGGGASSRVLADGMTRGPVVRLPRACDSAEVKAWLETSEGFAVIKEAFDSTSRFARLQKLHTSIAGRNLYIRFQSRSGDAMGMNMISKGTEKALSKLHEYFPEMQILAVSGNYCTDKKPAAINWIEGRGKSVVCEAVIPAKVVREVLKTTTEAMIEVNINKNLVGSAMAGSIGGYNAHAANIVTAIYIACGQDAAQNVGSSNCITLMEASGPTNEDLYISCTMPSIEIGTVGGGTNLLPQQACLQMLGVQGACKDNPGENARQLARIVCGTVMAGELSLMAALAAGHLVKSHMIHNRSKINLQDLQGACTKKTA", "assay": "HPLC fractions checked in vitro for suppression of HMG Co-A reductase in isolated hepatocytes", "type": "cell-based", "set-up": "suppress HMG Co-A reductase activity in isolated hepatocytes; endogenous in cells; host or cells: isolated hepatocytes", "conditions": "HPLC fractions of petroleum ether solubles"}, "HMG-CoA reductase [3]": {"biological_target": "T1, HMG-CoA reductase", "assay": "Hepatic HMG-CoA reductase activity in 13-week-old WLH male chickens", "type": "in vivo, chicken", "set-up": "preparing subcellular fractions of liver and assay procedures for beta-hydroxy-beta-methylglutaryl coenzyme A (HMG Co-A) reductase; from tissue; host or cells: chicken liver (microsomal fraction)", "conditions": "20 ppm in corn diet, fed four weeks, liver", "from_the_text": "as §1\nCholesterol inhibitor I was re-chromatographed by HPLC and the UV absorption spectrum obtained. Maximum absorption occurred at 292 nm. This purified fraction was used for high resolution mass spectrometric analysis. Several scans were made using ionization temperatures from 90-180 degrees Centigrade to increase the possibility of detecting impurities. […] The results shown on Table 3 confirm those previously recorded for petroleum ether solubles of HPBF and cholestrol inhibitor I. In a final experiment, the effects of cholestrol inhibitor I and lemon grass oil on hepatocyte HMG Co-A reductase and FAS activities were tested. […]\nexpressed as mean ± SD; N = 8 chickens per group; HMGCoA reductase = […]"}, "[4]": {"conditions": "2.5 ppm in corn diet, mean ± SD, N = 9"}, "[5]": {"conditions": "5.0 ppm in corn diet, mean ± SD, N = 9"}, "[6]": {"conditions": "10.0 ppm in corn diet, mean ± SD, N = 9"}, "[7]": {"conditions": "15.0 ppm in corn diet, mean ± SD, N = 9"}, "[8]": {"conditions": "20.0 ppm in corn diet, mean ± SD, N = 9"}, "[9]": {"conditions": "corn diet + 5 ppm (Table 2), mean ± SD, N = 9"}}, "data": [{"molecule": "CC(C)=CCC/C(C)=C/CC/C(C)=C/CC[C@]1(C)CCc2c(C)c(O)c(C)c(C)c2O1", "note": "[Cholesterol inhibitor I, 2,5,7,8-tetramethyl-2 (4,8, 12-trimethyltrideca-3,7, 11-trienyl)chroman-6-ol]", "values": [{"measurement": "Concentration in Serum Chol-LDL, percentage of control", "setting": "[1]; 2.5 ppm in corn diet", "value": "90 Percentage of respective contr"}, {"measurement": "Concentration in Serum Total Cholesterol, percentage of control", "setting": "[1]; 2.5 ppm in corn diet", "value": "94 Percentage of respective contr"}, {"measurement": "Concentration in Serum Chol-LDL", "setting": "[1]; [4]", "value": "73 ± 5", "unit": "mg/100 ml"}, {"measurement": "Concentration in Serum HDL-Chol.", "setting": "[1]; [4]", "value": "54 ± 6", "unit": "mg/100 ml"}, {"measurement": "Concentration in Serum Total Cholesterol", "setting": "[1]; [4]", "value": "152 ± 10", "unit": "mg/100 ml"}, {"measurement": "Level of cholesterol transported in the high-density lipoprotein fraction (HDL)", "setting": "[1]; 2.5 to 20 ppm, Table 1", "value": "not influenced"}, {"measurement": "Concentration in Serum Chol-LDL, percentage of control", "setting": "[1]; 5.0 ppm in corn diet", "value": "74 Percentage of respective contr"}, {"measurement": "Concentration in Serum Total Cholesterol, percentage of control", "setting": "[1]; 5.0 ppm in corn diet", "value": "89 Percentage of respective contr"}, {"measurement": "Concentration in Serum Chol-LDL", "setting": "[1]; [5]", "value": "60 ± 4", "unit": "mg/100 ml"}, {"measurement": "Concentration in Serum HDL-Chol.", "setting": "[1]; [5]", "value": "51 ± 4", "unit": "mg/100 ml"}, {"measurement": "Concentration in Serum Total Cholesterol", "setting": "[1]; [5]", "value": "144 ± 8", "unit": "mg/100 ml"}, {"measurement": "Concentration in Serum Chol-LDL, percentage of control", "setting": "[1]; 10.0 ppm in corn diet", "value": "67 Percentage of respective contr"}, {"measurement": "Concentration in Serum Total Cholesterol, percentage of control", "setting": "[1]; 10.0 ppm in corn diet", "value": "78 Percentage of respective contr"}, {"measurement": "Concentration in Serum Chol-LDL", "setting": "[1]; [6]", "value": "54 ± 4", "unit": "mg/100 ml"}, {"measurement": "Concentration in Serum HDL-Chol.", "setting": "[1]; [6]", "value": "52 ± 5", "unit": "mg/100 ml"}, {"measurement": "Concentration in Serum Total Cholesterol", "setting": "[1]; [6]", "value": "125 ± 7", "unit": "mg/100 ml"}, {"measurement": "Concentration in Serum Chol-LDL, percentage of control", "setting": "[1]; 15.0 ppm in corn diet", "value": "64 Percentage of respective contr"}, {"measurement": "Concentration in Serum Total Cholesterol, percentage of control", "setting": "[1]; 15.0 ppm in corn diet", "value": "76 Percentage of respective contr"}, {"measurement": "Concentration in Serum Chol-LDL", "setting": "[1]; [7]", "value": "52 ± 5", "unit": "mg/100 ml"}, {"measurement": "Concentration in Serum HDL-Chol.", "setting": "[1]; [7]", "value": "50 ± 6", "unit": "mg/100 ml"}, {"measurement": "Concentration in Serum Total Cholesterol", "setting": "[1]; [7]", "value": "122 ± 6", "unit": "mg/100 ml"}, {"measurement": "Concentration in Serum Chol-LDL, percentage of control", "setting": "[1]; 20.0 ppm in corn diet", "value": "47 Percentage of respective contr"}, {"measurement": "Concentration in Serum Total Cholesterol, percentage of control", "setting": "[1]; 20.0 ppm in corn diet", "value": "65 Percentage of respective contr"}, {"measurement": "Concentration in Serum Chol-LDL", "setting": "[1]; [8]", "value": "38 ± 5", "unit": "mg/100 ml"}, {"measurement": "Concentration in Serum HDL-Chol.", "setting": "[1]; [8]", "value": "48 ± 5", "unit": "mg/100 ml"}, {"measurement": "Concentration in Serum Total Cholesterol", "setting": "[1]; [8]", "value": "105 ± 8", "unit": "mg/100 ml"}, {"measurement": "Serum Cholesterol HDL-Chol.", "setting": "[1]; [9]", "value": "48 ± 5", "unit": "mg/dL"}, {"measurement": "Serum Cholesterol LDL-Chol.", "setting": "[1]; [9]", "value": "38 ± 5", "unit": "mg/dL"}, {"measurement": "Serum Cholesterol Total-Chol.", "setting": "[1]; [9]", "value": "105 ± 11", "unit": "mg/dL"}, {"measurement": "Serum Triglycerides", "setting": "[1]; [9]", "value": "174 ± 6", "unit": "mg/dL"}, {"measurement": "Effect on HMG Co-A reductase in isolated hepatocytes", "setting": "HMG-CoA reductase [2]", "value": "significant inhibition"}, {"measurement": "HMG-CoA Reductase, percentage of control", "setting": "HMG-CoA reductase [3]", "value": "63 Percentage of respective contr"}, {"measurement": "HMG-CoA Reductase", "setting": "HMG-CoA reductase [3]; mean ± SD, N = 8", "value": "305 ± 18 pmoles of mevalonic acid synth"}]}]}
